These results are taken from patent US20100168137A1, “COMBINATION FOR USE IN THE TREATMENT OF INFLAMMATORY DISORDERS” (priority 2006, published 2010).

Assay [1] relates to Platelet derived growth factor, alpha (PDGFa). Briefly: PDGFa gene expression (microarray) in balloon-injured rat carotid artery. To be noted: for effect on PDGFa gene expression (in words): 5 mg/kg of each drug s.c. 60 minutes before injury, 8 hours after injury, versus saline control; for mean PDGFa signal intensity: male Sprague-Dawley rats, 5 mg/kg of each drug s.c. 60 minutes before carotid balloon injury, tissue taken 8 hours after injury, 3 rats per group, saline control 528. It counts as in vivo.

The subject of assay [2] is MonoMac-6 (MM6) cells. Briefly: MonoMac-6 macrophage proliferation (WST-1 reagent). To be noted: 48 hours; for inhibitory effect on MM6 proliferation at 10 μM (in words): WST-1, n=5, data not shown; for inhibition at 100 µM: Homo sapiens, MONO-MAC-6, 100 μM final concentration of each drug, WST-1, mean value n=5, versus untreated cells. It counts as cell-based, human. Here is the method:
Cells from the human macrophage cell-line MonoMac-6 (MM6) (Ziegler-Heitbrock et al, Int. J. Cancer, 41, 456 (1988)) were cultured (37° C./5% CO2) in RPMI-1640 medium supplemented with 1 mM sodium pyruvate, 1×nonessential amino acids, 1-100 μg/mL insulin, 1 mM oxalacetic acid, 100 units/mL penicillin, 100 μg/mL streptomycin and 10% (v/v) fetal bovine serum. At the start of the experiment, MM6 cells were seeded in 96-well plates at a density of 1×10^5 cells/mL (100 μl per well). Proliferation of the MM6 cells was measured using the Cell Proliferation Reagent WST-1 (Roche Diagnostics Scandinavia AB, Bromma, Sweden) or by cell counting using a microscope. The WST-1 reagent is designed to be used for spectrophotometric quantification of e.g. cell growth in proliferation assays and was used according to the manufacturers' instructions. […] Stock solutions of pemirolast (potassium salt purchased from American Custom Chemicals Corporation, San Diego, USA) and ramatroban (purchased from Cayman Chemical, Ann Arbor, Mich., USA as free acid and transferred into sodium salt by adding one equivalent of aqueous NaOH) were made in sterile saline.
The effects of pemirolast and/or ramatroban (added at the start of the experiments) on MM6 cell proliferation were studied 48 hours after start of the experiments using the WST-1 reagent described above.
In general terms: Formazan colour is commonly taken as a measure of viable cells.

Assay [3] deals with Macrophage inflammatory protein-2 (MIP-2), also designated chemokine (C-X-C motif) ligand 2 (CXCL2). As to the kind of experiment: MIP-2 gene expression (microarray) in balloon-injured rat carotid artery. The format is in vivo. As to conditions: for effect on MIP-2 gene expression (in words): 5 mg/kg of each drug s.c. 60 minutes before injury, 8 hours after injury, versus saline control; for mean MIP-2 signal intensity: male Sprague-Dawley rats, 5 mg/kg of each drug s.c. 60 minutes before carotid balloon injury, tissue taken 8 hours after injury, 3 rats per group, saline control 203.

As a reminder, the inhibition is the change of the read-out against control, counted positive when it falls. Read a high inhibition as strong suppression. In the case of `Cc1cccn2c(=O)c(-c3nnn[nH]3)cnc12` [pemirolast], in assay [1], the “effect on PDGFa gene expression (in words)” value was “did not reduce PDGFa gene expression levels” and the “mean PDGFa signal intensity” value amounted to 800. Also, in assay [2], the “inhibitory effect on MM6 proliferation at 10 μM (in words)” value is “very similar to that of 100 μM of pemirolast” and the inhibition at 100 µM stood at 9.4%. Moreover, in assay [3], the “effect on MIP-2 gene expression (in words)” value is “did not reduce MIP-2 gene expression levels” and the “mean MIP-2 signal intensity” value is given as 710.

For `O=C(O)CCn1c2c(c3ccccc31)C[C@H](NS(=O)(=O)c1ccc(F)cc1)CC2` [ramatroban], in assay [1], the “effect on PDGFa gene expression (in words)” value is listed as “did not reduce PDGFa gene expression levels” and the “mean PDGFa signal intensity” value came out at 566. Also, in assay [2], the “inhibitory effect on MM6 proliferation at 10 μM (in words)” value is recorded as “less that that of 100 μM of ramatroban” and the inhibition at 100 µM was determined as 16.8%. For the same compound, in assay [3], the “effect on MIP-2 gene expression (in words)” value was “did not reduce MIP-2 gene expression levels” and the “mean MIP-2 signal intensity” value is 326.
